According to PubChem BioAssay (NCI):
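48-hour exposure; five concentrations; linearly interpolated endpoints. GI50 is the concentration that inhibits growth by half. TGI: concentration producing complete growth inhibition.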

Key:
Assay in all cases: NCI-60 cell line screen, 48 h
COLO 205 colon = system: COLO 205 colon
EKVX NSCLC = system: EKVX NSCLC
HOP-92 NSCLC = system: HOP-92 NSCLC
HS 578T breast = system: HS 578T breast
MALME-3M melanoma = system: MALME-3M melanoma
NCI-H460 lung = system: NCI-H460 lung
OVCAR-5 ovarian = system: OVCAR-5 ovarian
SF-268 CNS = system: SF-268 CNS
SK-MEL-2 melanoma = system: SK-MEL-2 melanoma
MOLT-4 leukemia = system: MOLT-4 leukemia

Compound	GI50 (COLO 205 colon) [µM]	TGI (COLO 205 colon) [µM]	GI50 (EKVX NSCLC) [µM]	TGI (EKVX NSCLC) [µM]	GI50 (HOP-92 NSCLC) [µM]	TGI (HOP-92 NSCLC) [µM]	GI50 (HS 578T breast) [µM]	TGI (HS 578T breast) [µM]	GI50 (MALME-3M melanoma) [µM]	TGI (MALME-3M melanoma) [µM]	GI50 (NCI-H460 lung) [µM]	TGI (NCI-H460 lung) [µM]	GI50 (OVCAR-5 ovarian) [µM]	TGI (OVCAR-5 ovarian) [µM]	GI50 (SF-268 CNS) [µM]	TGI (SF-268 CNS) [µM]	GI50 (SK-MEL-2 melanoma) [µM]	TGI (SK-MEL-2 melanoma) [µM]	GI50 (MOLT-4 leukemia) [µM]	TGI (MOLT-4 leukemia) [µM]
O=c1cc(N2CCN(CCCCCOc3cc(O)c4c(=O)cc(-c5ccccc5)oc4c3)CC2)c2ccccc2o1	70.5	> 100	> 100	> 100	26.1	> 100	> 100	> 100	39.2	> 100	> 100	> 100	> 100	> 100	> 100	> 100	> 100	> 100	–	–
Cc1ccc(NC2=C(Cl)C(=O)N(Cc3ccc(Cl)cc3)C2=O)cc1O	10.7	41	–	–	–	–	16.4	75.8	5.23	26.9	4.29	20.5	–	–	5.07	21.2	10.7	26.7	> 100	> 100
O=C1c2ccccc2-c2oc(=O)c3ccccc3c21	–	> 100	–	> 100	–	> 100	–	> 100	–	–	–	> 100	–	> 100	–	–	–	> 100	–	> 100
COc1cc(N2CCC(N3CCN(C)CC3)CC2)ccc1Nc1ncnc(Nc2ccccc2S(=O)(=O)C(C)C)n1	3.21	11.1	–	–	0.467	2.03	4.2	54.5	3.12	20.2	7.24	25.6	2.06	12.8	4.39	28.7	5.83	16.3	5.07	> 64.8
C/C(=N\Nc1cc(C)c2ccccc2n1)c1ccccn1	< 0.0188	1.98	–	–	–	–	1.91	16.2	0.155	1.49	< 0.0387	1.17	0.0706	5.26	0.0433	1.71	0.357	11.1	< 0.0381	0.489
N#CC1=C(N)Oc2c(ccc3ccccc23)C1c1ccccc1 (stereo not drawn)	0.19	1.23	0.315	20.1	0.0413	12.9	0.0316	21.3	–	–	0.038	10.8	0.172	17.2	0.166	15.7	0.0517	12.6	0.0574	16.8
c1cc(N2CCCN(c3ccc(C4=NCCCN4)cc3)CC2)ccc1C1=NCCCN1	> 100	> 100	40.6	> 100	> 100	> 100	77.7	> 100	> 100	> 100	36.7	> 100	> 100	> 100	> 100	> 100	–	–	> 100	> 100
O=C1O/C(=C\c2ccccc2)N(c2ccccc2)C1=O	–	> 100	–	> 100	–	> 100	–	> 100	–	–	–	> 100	–	> 100	–	> 100	–	> 100	–	> 100
O=C1NC(=O)C(c2ccccc2Cl)=C1Nc1cc(Cl)c(O)c(Cl)c1	> 18.1	> 25	> 25	> 25	–	–	10.9	> 25	17	> 25	> 25	> 25	> 25	> 25	12.1	> 25	12	> 25	16	> 25
c1ccc2c(NCCCCCCNc3c4ccccc4nc4ccccc34)c3ccccc3nc2c1	–	1.58	–	5.69	–	1.97	–	3.05	–	2.49	–	–	–	2.71	–	2.71	–	2.75	–	0.212
CNC(=S)NC(=O)c1c(Cl)n(C(=O)OC(C)(C)C)c2ccccc12	59.6	> 100	39.7	> 100	15.1	85.1	45.8	> 100	> 100	> 100	48.6	> 100	73.8	> 100	72.8	> 100	> 100	> 100	–	–
CC(=O)N1C/C(=C/c2ccc(Cl)cc2)C(=O)/C(=C/c2ccc(Cl)cc2)C1	0.756	2.01	–	–	1.52	4.06	1.43	5.24	1.94	4.14	1.32	4.22	1.68	3.45	1.37	4.02	2.19	4.56	0.249	7.58
C=C(NC(=O)C(=C)NC(=O)c1csc(C2=NC3c4csc(n4)C4NC(=O)c5csc(n5)C(C(C)(O)C(C)O)NC(=O)C5CSC(=N5)C(=CC)NC(=O)C(C(C)O)NC(=O)c5csc(n5)C3(CC2)NC(=O)C(C)NC(=O)C(=C)NC(=O)C(C)NC(=O)C(C(C)CC)NC2C=Cc3c(C(C)O)cc(nc3C2O)C(=O)OC4C)n1)C(N)=O (stereo not drawn)	2.72	13.7	32.5	> 100	–	–	> 100	> 100	3.14	> 100	17	> 100	25.5	79.9	19.6	> 100	19	> 100	2.08	5.55
Cc1cccc(C)c1CO	–	> 100	–	> 100	–	> 100	–	–	–	> 100	–	> 100	–	> 100	–	> 100	–	> 100	–	> 100
COc1ccc(NC(=O)CC/C(CC(=O)C(C)(C)C)=N\NC(=O)C(=O)NN)cc1	–	> 100	–	> 100	–	> 100	–	–	–	> 100	–	> 100	–	> 100	–	> 100	–	> 100	–	> 100
